Columns and labels:
[1] = target: T1, Macrophage migration inhibitory factor (Homo sapiens, UniProt P14174); test: Inhibition of human recombinant MIF tautomerase activity using 4-hydroxyphenylpyruvate as substrate
T1 sequence (P14174 whole entry): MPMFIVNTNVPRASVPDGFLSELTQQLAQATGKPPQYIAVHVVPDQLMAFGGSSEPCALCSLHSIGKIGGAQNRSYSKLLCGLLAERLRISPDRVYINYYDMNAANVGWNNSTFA

[2] = target: T2, MIF/CD74 (Macrophage migration inhibitory factor and HLA-DR antigens-associated invariant chain) (Homo sapiens) (UniProt P14174+P04233); conditions: 4 nM
Description: Inhibition of human recombinant biotinylated MIF/CD74 ectodomain interaction at 4 nM by streptavidin alkaline phosphatase reporter system

[3] = target: T2, MIF/CD74 (Macrophage migration inhibitory factor and HLA-DR antigens-associated invariant chain) (Homo sapiens); conditions: 78 nM
Description: Inhibition of human recombinant biotinylated MIF/CD74 ectodomain interaction at 78 nM by streptavidin alkaline phosphatase reporter system

COc1cccc(-n2sc3ccc(F)cc3c2=O)c1
IC50 [1]: 2.8 µM

O=c1c2cccc(F)c2sn1-c1ccc(Cl)cc1
IC50 [1]: 2.8 µM

O=c1c2ccc(O)cc2sn1-c1ccc(Cl)cc1
inhibition [2]: 23%

CC(=O)OCc1cccc(-n2sc3cc(F)ccc3c2=O)c1
IC50 [1]: 2.3 µM

O=c1c2cc(Br)ccc2sn1-c1ccc(Cl)cc1
IC50 [1]: 7.9 µM

O=c1c2cccc(F)c2sn1-c1cccc(O)c1
IC50 [1]: 5.9 µM

COc1cccc(-n2sc3cc(F)ccc3c2=O)c1
IC50 [1]: 25 µM

O=c1c2cc(F)ccc2sn1-c1ccc(Cl)cc1
IC50 [1]: 5.6 µM

N#Cc1ccc2c(=O)n(-c3ccc(Cl)cc3)sc2c1
IC50 [1]: 3.1 µM

O=c1c2ccc(Br)cc2sn1-c1ccc(Cl)cc1
IC50 [1]: 11 µM

N#Cc1ccc2sn(-c3ccc(Cl)cc3)c(=O)c2c1
IC50 [1]: 19 µM

COCc1cccc(-n2sc3cc(F)ccc3c2=O)c1
IC50 [1]: 2.4 µM

O=c1c2ccc(F)c(F)c2sn1-c1ccc(Cl)cc1
IC50 [1]: 5.6 µM

COc1cccc(-n2sc3c(F)cccc3c2=O)c1
IC50 [1]: 8 µM

N#Cc1ccc(-n2sc3cc(F)ccc3c2=O)cc1
inhibition [3]: 49%

COc1ccc(-n2sc3ccc(F)cc3c2=O)cc1
IC50 [1]: 6.5 µM

O=c1c2cc([N+](=O)[O-])ccc2sn1-c1ccc(Cl)cc1
IC50 [1]: 6.2 µM

O=c1c2cc(F)c(F)cc2sn1-c1ccc(Cl)cc1
IC50 [1]: 4.9 µM

O=c1c2ccc(F)cc2sn1-c1cccc(Cl)c1
IC50 [1]: 5 µM

O=c1c2cccc(Cl)c2sn1-c1ccc(Cl)cc1
IC50 [1]: 6.6 µM
